Structures are written as SMILES. Where only a bound is given, the exact number is not on record here.

This is an account of results in patent publication US12139492B2 (Endotarget Inc., priority 2021, dated 2024).

One experiment concerns Mino cells. The experiment can be described thus: Antiproliferative effect, MTS cell viability assay, Mino cells. In kind it is cell-based. Conditions: Homo sapiens, MINO, Mino mantle cell lymphoma cells; read-out: IC50 (anti-proliferation) Mino cells. In outline: (§1)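 Cells were exposed to compound at 0, 0.001, 0.01, 0.1, 1 and 10 μM for 72 h. Viability was then measured by MTS assay, reading formazan produced by metabolically active cells as absorbance at 490 nm.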

The subject of another experiment is JeKo-1 cells. The experiment in a line: Antiproliferative effect, MTS cell viability assay, JeKo-1 cells. In kind it is cell-based. Conditions: Homo sapiens; JeKo-1 mantle cell lymphoma cells; read-out: IC50 (anti-proliferation) JeKO-1 cells. In outline:
as §1

For the next experiment, the target named is BTK (Homo sapiens, UniProt Q06187). The experiment in a line: Degradation of BTK protein in Namalwa cells (Western blot; DC50, Dmax). Particulars: for DC50: read-out: DC50 (BTK degradation), concentration giving 50% reduction of BTK expression level, cell line not given; for Dmax: read-out: Dmax (BTK degradation).
Sequence of BTK (Q06187 whole entry): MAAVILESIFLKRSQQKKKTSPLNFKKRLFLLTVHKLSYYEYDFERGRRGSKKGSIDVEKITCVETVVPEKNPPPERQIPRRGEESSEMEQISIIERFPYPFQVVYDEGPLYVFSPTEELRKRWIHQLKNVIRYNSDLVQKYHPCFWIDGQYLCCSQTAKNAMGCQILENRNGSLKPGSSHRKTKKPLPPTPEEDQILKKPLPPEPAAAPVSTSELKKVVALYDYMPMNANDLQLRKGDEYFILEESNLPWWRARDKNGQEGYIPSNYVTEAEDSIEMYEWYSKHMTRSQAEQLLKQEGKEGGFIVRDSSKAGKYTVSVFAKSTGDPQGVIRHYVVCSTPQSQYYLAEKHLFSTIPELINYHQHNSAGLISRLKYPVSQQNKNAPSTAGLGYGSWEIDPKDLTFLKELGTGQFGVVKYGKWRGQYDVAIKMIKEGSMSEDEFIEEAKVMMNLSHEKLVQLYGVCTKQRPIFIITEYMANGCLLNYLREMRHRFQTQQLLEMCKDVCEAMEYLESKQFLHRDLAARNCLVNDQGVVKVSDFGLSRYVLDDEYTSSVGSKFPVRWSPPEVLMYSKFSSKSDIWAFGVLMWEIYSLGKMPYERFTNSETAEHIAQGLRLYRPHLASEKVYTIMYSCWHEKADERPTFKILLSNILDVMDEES

`Nc1ncnc2c1c(-c1ccc(Oc3ccccc3)cc1)nn2[C@@H]1CCCN(CC2CCN(C(=O)NC3CCC(=O)NC3=O)CC2)C1` (stereo partly drawn) [Compound 518, 4-(((R)-3-(4-amino-3-(4-phenoxyphenyl)-1H-pyrazolo[3,4-d]pyrimidin-1-yl)piperidin-1-yl)methyl)-N-(2,6-dioxopiperidin-3-yl)piperidine-1-carboxamide]: in the experiment with Mino cells, the IC50 lay within 1000 to 10000 nM. Also, in the experiment with JeKo-1 cells, the IC50 lay in the range of 1000 to 10000 nM. Also, on BTK, the DC50 was above 50 nM and the Dmax was above 75%.
For `Nc1ncnc2c1c(-c1ccc(Oc3ccccc3)cc1)nn2[C@@H]1CCCN(CCNC(=O)NC2CCC(=O)NC2=O)C1` (stereo partly drawn) [Compound 519, 1-(2-((R)-3-(4-amino-3-(4-phenoxyphenyl)-1H-pyrazolo[3,4-d]pyrimidin-1-yl)piperidin-1-yl)ethyl)-3-(2,6-dioxopiperidin-3-yl)urea], the IC50 with Mino cells is above 10000 nM. The IC50 in the experiment on JeKo-1 cells was in the range of 1000 to 10000 nM. Also, on BTK, the DC50 lay within 10 to 50 nM and the Dmax was above 75%.
Taken in the same sequence, the figures for `Nc1ncnc2c1c(-c1ccc(Oc3ccccc3)cc1)nn2C1CCN(C(=O)NCCN2CCN(c3ccc4c(c3)C(=O)N(C3CCC(=O)NC3=O)C4=O)CC2)CC1` (stereo not shown) [Compound 520, 4-(4-amino-3-(4-phenoxyphenyl)-1H-pyrazolo[3,4-d]pyrimidin-1-yl)-N-(2-(4-(2-(2,6-dioxopiperidin-3-yl)-1,3-dioxoisoindolin-5-yl)piperazin-1-yl)ethyl)piperidine-1-carboxamide] were below 1000 nM, below 1000 nM, 10 to 50 nM and above 90%.
The like results for `Nc1ncnc2c1c(-c1ccc(Oc3ccccc3)cc1)nn2C1CCN(C(=O)NCCN2CCN(c3ccc4c(c3)CN(C3CCC(=O)NC3=O)C4=O)CC2)CC1` (stereo not shown) [Compound 521, 4-(4-amino-3-(4-phenoxyphenyl)-1H-pyrazolo[3,4-d]pyrimidin-1-yl)-N-(2-(4-(2-(2,6-dioxopiperidin-3-yl)-1-oxoisoindolin-5-yl)piperazin-1-yl)ethyl)piperidine-1-carboxamide] were, in that order, below 1000 nM, below 1000 nM, below 10 nM and above 90%.
The like results for `Nc1ncnc2c1c(-c1ccc(Oc3ccccc3)cc1)nn2C1CCC(C(=O)NCCN2CCN(c3ccc4c(c3)C(=O)N(C3CCC(=O)NC3=O)C4=O)CC2)CC1` (stereo not shown) [Compound 522, 4-(4-amino-3-(4-phenoxyphenyl)-1H-pyrazolo[3,4-d]pyrimidin-1-yl)-N-(2-(4-(2-(2,6-dioxopiperidin-3-yl)-1,3-dioxoisoindolin-5-yl)piperazin-1-yl)ethyl)cyclohexane-1-carboxamide] were, in that order, below 1000 nM, below 1000 nM, below 10 nM and above 90%.
Regarding `Nc1ncnc2c1c(-c1ccc(Oc3ccccc3)cc1)nn2C1CCC(C(=O)NCCN2CCN(c3ccc4c(c3)CN(C3CCC(=O)NC3=O)C4=O)CC2)CC1` (stereo not shown) [Compound 523, 4-(4-amino-3-(4-phenoxyphenyl)-1H-pyrazolo[3,4-d]pyrimidin-1-yl)-N-(2-(4-(2-(2,6-dioxopiperidin-3-yl)-1-oxoisoindolin-5-yl)piperazin-1-yl)ethyl)cyclohexane-1-carboxamide], the IC50 with Mino cells and in the experiment on JeKo-1 cells was below 1000 nM in each case. The DC50 on BTK was below 10 nM. At BTK, the Dmax was above 90%.
Take `Nc1ncnc2c1c(-c1ccc(Oc3ccccc3)cc1)nn2[C@@H]1CCCN(C(=O)NCCN2CCN(c3ccc4c(c3)C(=O)N(C3CCC(=O)NC3=O)C4=O)CC2)C1` (stereo partly drawn) [Compound 524, (3R)-3-(4-amino-3-(4-phenoxyphenyl)-1H-pyrazolo[3,4-d]pyrimidin-1-yl)-N-(2-(4-(2-(2,6-dioxopiperidin-3-yl)-1,3-dioxoisoindolin-5-yl)piperazin-1-yl)ethyl)piperidine-1-carboxamide]: the IC50 in the experiment on Mino cells was below 1000 nM. The IC50 in the experiment on JeKo-1 cells lay within 1000 to 10000 nM. On BTK, the DC50 is below 10 nM and the Dmax is above 90%.
